Measurements published in ChEMBL document CHEMBL3867472, “Discovery of benzofuran propanoic acid GPR120 agonists: From uHTS hit to mechanism-based pharmacodynamic effects” (Bioorg Med Chem Lett, 2016).
pEC50, pIC50: −log10 of the molar value. Calls of active or inactive are those of the source. The calls are words filed in the database; no cut-off is given here.

Legend:
Mus musculus [1] = assay: In vivo agonist activity at GPR120 in wild-type mouse assessed as target engagement at 100 mg/kg, po; format: functional
[2] = Oral bioavailability in mouse at 10 mg/kg; format: ADME, organism-based; conditions: in vivo
[3] = Drug uptake in wild-type mouse blood at 100 mg/kg, po; format: ADME, organism-based; conditions: in vivo, read-out: Drug uptake
[4] = Drug uptake in GPR120 knockout mouse blood at 30 mg/kg, po; format: ADME, organism-based; conditions: in vivo, read-out: Drug uptake
[5] = Cmax in mouse at 2 mg/kg, iv or 10 mg/kg, po; format: ADME, organism-based; conditions: in vivo
[6] = target: Sodium channel protein type 5 subunit alpha (Homo sapiens, UniProt Q14524); assay: Inhibition of Nav1.5 (unknown origin)
Cytochrome P450 2D6 = Cytochrome P450 2D6 (Homo sapiens, UniProt P10635); assay: Inhibition of CYP2D6 (unknown origin); format: ADME
Cytochrome P450 2D6, sequence (P10635 whole entry): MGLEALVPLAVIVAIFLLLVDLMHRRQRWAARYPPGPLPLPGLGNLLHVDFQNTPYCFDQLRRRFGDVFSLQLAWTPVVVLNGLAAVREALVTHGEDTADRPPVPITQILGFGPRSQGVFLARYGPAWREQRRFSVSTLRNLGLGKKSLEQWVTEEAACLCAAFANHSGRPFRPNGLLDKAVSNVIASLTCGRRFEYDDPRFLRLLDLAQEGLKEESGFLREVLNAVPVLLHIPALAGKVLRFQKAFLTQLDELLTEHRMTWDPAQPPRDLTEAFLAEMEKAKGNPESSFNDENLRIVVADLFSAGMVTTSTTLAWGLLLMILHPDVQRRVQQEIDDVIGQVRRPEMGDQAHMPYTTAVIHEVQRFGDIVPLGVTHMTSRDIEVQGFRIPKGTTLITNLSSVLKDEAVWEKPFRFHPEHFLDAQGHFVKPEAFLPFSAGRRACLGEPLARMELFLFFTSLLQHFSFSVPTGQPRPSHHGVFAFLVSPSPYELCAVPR

Mus musculus [7] = assay: Reduction of glucose excursion in GPR120 knockout mouse at 30 and 100 mg/kg, po by oral glucose tolerance test; format: functional, organism-based
[8] = Antidiabetic activity in wild-type mouse assessed as reduction in glucose excursion at 30 and 100 mg/kg, po by oral glucose tolerance test; format: functional, organism-based
Cytochrome P450 3A4 = Cytochrome P450 3A4 (Homo sapiens, UniProt P08684); assay: Inhibition of CYP3A4 (unknown origin); format: ADME
Cytochrome P450 3A4, sequence (P08684 whole entry): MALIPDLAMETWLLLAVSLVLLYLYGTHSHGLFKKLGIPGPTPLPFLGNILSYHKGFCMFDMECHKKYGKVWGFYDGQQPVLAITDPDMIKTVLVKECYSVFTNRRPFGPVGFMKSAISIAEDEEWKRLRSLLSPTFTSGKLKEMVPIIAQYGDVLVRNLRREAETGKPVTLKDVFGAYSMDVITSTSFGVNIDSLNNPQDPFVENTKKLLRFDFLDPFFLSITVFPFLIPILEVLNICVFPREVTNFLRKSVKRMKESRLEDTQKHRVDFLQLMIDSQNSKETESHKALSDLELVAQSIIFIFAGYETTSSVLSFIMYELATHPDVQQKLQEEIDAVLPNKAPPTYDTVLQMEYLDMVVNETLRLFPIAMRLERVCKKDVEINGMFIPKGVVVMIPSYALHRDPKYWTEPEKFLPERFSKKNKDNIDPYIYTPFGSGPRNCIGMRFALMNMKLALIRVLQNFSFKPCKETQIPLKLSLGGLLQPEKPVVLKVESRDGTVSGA

Cytochrome P450 2C9 = Cytochrome P450 2C9 (Homo sapiens, UniProt P11712); assay: Inhibition of CYP2C9 (unknown origin); format: ADME
Cytochrome P450 2C9, sequence (P11712 whole entry): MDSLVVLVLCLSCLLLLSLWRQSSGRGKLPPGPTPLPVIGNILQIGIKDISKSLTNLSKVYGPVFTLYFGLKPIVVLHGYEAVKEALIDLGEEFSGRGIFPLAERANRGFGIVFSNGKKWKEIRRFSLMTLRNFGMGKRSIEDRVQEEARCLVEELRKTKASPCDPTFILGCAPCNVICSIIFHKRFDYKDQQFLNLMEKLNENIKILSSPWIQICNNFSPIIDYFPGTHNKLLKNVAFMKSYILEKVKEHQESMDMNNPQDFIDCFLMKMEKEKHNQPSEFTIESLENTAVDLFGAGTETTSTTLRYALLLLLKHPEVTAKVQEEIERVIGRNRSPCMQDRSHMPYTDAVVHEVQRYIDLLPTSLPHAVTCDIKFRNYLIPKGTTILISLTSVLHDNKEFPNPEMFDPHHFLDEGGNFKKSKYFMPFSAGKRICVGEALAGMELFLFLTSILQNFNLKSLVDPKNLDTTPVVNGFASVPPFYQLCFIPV

[9] = target: T1, Free fatty acid receptor 4 (Homo sapiens, UniProt Q5NUL3); assay: Agonist activity at human GPR120 expressed in CHOK1 cells measured after 60 mins by IP1-HTRF assay; format: functional, cell-based, CHO-K1
T1 sequence (Q5NUL3 whole entry): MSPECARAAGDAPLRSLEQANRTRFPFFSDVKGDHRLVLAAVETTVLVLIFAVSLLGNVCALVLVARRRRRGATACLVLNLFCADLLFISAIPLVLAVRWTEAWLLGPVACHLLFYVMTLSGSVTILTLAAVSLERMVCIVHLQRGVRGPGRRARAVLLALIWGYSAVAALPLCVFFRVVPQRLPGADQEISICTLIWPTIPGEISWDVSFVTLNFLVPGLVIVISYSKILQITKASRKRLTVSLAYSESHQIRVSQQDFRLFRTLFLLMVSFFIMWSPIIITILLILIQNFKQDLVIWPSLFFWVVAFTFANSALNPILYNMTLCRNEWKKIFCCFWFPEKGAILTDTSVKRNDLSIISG

[10] = Clearance in mouse at 2 mg/kg, iv or 10 mg/kg, po; format: ADME, organism-based; conditions: in vivo
[11] = target: T2, Free fatty acid receptor 4 (Mus musculus) (UniProt Q7TMA4); assay: Agonist activity at mouse GPR120 expressed in CHOK1 cells measured after 60 mins by IP1-HTRF assay relative to basal level; format: functional, cell-based; design: concentration or dose not given beside the values; conditions: CHO-K1
T2 sequence (whole entry): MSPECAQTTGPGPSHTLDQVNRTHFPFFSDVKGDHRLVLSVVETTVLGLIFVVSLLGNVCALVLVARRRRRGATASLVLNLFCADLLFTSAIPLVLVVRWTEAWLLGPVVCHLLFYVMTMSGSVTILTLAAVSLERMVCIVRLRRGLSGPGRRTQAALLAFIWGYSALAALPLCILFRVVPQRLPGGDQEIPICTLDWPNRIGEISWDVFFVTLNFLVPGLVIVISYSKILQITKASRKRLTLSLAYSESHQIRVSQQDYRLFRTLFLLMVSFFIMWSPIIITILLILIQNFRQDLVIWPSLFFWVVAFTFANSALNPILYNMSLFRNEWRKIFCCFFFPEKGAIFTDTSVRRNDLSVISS

[12] = Drug uptake in wild-type mouse blood at 30 mg/kg, po; format: ADME, organism-based; conditions: in vivo, read-out: Drug uptake
[13] = target: T3, Free fatty acid receptor 1 (Homo sapiens, UniProt O14842); assay: Agonist activity at human GPR40 measured after 60 mins by IP1-HTRF assay relative to basal level; format: functional; design: concentration or dose not given beside the values
T3 sequence (O14842 whole entry): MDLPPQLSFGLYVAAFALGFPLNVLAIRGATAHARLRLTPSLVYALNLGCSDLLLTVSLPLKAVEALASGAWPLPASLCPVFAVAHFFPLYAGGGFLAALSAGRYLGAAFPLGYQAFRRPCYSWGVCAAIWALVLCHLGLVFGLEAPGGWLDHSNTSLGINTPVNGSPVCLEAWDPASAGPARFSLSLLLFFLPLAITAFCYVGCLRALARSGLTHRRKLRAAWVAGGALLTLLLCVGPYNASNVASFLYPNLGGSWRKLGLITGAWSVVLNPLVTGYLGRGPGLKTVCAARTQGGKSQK

[14] = Drug uptake in GPR120 knockout mouse blood at 100 mg/kg, po; format: ADME, organism-based; conditions: in vivo, read-out: Drug uptake
[15] = Half life in mouse at 2 mg/kg, iv or 10 mg/kg, po; format: ADME, organism-based; conditions: in vivo
[16] = target: T3, Free fatty acid receptor 1; assay: Agonist activity at human GPR40 measured after 60 mins by IP1-HTRF assay; format: functional
Mus musculus [17] = assay: In vivo agonist activity at GPR120 in wild-type mouse assessed as target engagement at 30 mg/kg, po; format: functional
[18] = target: T4, Free fatty acid receptor 4 (Homo sapiens) (UniProt Q5NUL3); assay: Agonist activity at human GPR120 expressed in CHOK1 cells measured after 60 mins by IP1-HTRF assay relative to basal level; format: functional, cell-based; design: concentration or dose not given beside the values; conditions: CHO-K1
T4 sequence (whole entry): T1 sequence (Q5NUL3 whole entry)

[19] = Protein binding in mouse plasma; format: ADME, cell-free; conditions: read-out: PPB (converted)
[20] = target: T5, Free fatty acid receptor 4 (Mus musculus, UniProt Q7TMA4); assay: Agonist activity at mouse GPR120 expressed in CHOK1 cells measured after 60 mins by IP1-HTRF assay; format: functional, cell-based, CHO-K1
T5 sequence (Q7TMA4 whole entry): T2 sequence (whole entry)

[21] = target: Voltage-dependent L-type calcium channel subunit alpha-1C (Homo sapiens, UniProt Q13936); assay: Inhibition of Cav1.2 (unknown origin)
Voltage-dependent L-type calcium channel subunit alpha-1C, sequence (Q13936 whole entry): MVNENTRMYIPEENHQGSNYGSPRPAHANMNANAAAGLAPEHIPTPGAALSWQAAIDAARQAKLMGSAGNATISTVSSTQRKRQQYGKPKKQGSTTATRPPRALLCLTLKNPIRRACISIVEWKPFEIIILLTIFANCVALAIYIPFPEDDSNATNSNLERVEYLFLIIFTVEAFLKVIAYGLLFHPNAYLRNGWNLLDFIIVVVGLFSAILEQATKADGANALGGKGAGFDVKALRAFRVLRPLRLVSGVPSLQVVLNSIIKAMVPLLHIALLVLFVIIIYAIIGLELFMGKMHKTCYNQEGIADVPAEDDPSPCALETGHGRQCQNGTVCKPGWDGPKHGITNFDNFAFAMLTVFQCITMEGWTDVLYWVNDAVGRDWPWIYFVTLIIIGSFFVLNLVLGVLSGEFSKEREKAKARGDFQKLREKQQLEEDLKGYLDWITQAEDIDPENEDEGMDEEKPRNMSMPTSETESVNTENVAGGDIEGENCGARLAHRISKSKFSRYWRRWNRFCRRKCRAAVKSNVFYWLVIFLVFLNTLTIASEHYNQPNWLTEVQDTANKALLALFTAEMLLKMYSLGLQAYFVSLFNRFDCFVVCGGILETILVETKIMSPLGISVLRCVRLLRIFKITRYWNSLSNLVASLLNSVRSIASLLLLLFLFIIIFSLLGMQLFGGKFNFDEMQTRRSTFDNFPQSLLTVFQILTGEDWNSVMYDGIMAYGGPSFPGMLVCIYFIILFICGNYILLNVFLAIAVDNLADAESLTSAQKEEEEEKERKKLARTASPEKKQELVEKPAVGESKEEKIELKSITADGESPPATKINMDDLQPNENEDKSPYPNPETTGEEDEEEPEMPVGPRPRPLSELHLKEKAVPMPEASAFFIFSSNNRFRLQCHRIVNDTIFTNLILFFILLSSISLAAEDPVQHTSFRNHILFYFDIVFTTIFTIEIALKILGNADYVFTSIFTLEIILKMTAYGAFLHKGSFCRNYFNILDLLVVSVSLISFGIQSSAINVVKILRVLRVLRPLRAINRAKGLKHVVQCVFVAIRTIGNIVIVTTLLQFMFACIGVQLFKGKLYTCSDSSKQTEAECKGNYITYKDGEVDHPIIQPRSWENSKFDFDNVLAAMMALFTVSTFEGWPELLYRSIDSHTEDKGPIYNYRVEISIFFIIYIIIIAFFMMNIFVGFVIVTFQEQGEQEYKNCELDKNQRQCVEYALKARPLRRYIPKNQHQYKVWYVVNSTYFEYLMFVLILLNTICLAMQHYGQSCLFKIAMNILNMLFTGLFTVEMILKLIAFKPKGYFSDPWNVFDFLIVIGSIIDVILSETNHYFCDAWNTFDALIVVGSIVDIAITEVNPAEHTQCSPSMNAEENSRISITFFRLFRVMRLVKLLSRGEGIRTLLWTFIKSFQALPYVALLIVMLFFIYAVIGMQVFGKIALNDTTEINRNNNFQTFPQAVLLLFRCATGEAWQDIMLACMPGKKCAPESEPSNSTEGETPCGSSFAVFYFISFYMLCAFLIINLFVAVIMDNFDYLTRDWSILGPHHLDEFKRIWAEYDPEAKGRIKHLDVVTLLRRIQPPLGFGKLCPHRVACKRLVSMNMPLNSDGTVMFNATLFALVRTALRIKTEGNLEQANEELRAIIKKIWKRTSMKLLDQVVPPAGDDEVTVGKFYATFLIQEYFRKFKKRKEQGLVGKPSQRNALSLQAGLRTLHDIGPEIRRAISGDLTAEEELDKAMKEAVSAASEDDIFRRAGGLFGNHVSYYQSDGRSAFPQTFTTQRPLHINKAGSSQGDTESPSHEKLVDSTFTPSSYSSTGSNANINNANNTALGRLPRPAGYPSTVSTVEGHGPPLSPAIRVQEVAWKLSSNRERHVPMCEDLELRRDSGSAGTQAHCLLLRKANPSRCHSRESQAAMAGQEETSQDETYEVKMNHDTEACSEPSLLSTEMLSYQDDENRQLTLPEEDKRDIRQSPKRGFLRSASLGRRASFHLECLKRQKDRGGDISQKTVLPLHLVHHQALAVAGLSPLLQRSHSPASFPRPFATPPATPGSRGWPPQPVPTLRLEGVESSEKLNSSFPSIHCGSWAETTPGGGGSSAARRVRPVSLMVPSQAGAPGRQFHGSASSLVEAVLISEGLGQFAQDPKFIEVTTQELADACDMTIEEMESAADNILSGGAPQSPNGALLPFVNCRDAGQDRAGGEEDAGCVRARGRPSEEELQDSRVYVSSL

[22] = Volume of distribution in mouse at 2 mg/kg, iv or 10 mg/kg, po; format: ADME, organism-based; conditions: in vivo
[23] = target: Voltage-gated inwardly rectifying potassium channel KCNH2 (Homo sapiens, UniProt Q12809)
[24] = target: T4, Free fatty acid receptor 4 (Homo sapiens); assay: Agonist activity at human GPR120 expressed in CHO-NFAT cells assessed as increase in calcium efflux at 5 uM by Fluo-4 dye-based FLIPR assay; format: functional, cell-based
CHO-K1 = assay: Effect on calcium efflux in CHOK1 cells at 5 uM by Fluo-4 dye-based FLIPR assay; format: functional, Cricetulus griseus
[25] = target: T4, Free fatty acid receptor 4 (Homo sapiens); assay: Agonist activity at GPR120 (unknown origin) at 5 uM by PathHunter cell based assay

| Compound | bioavailability [2] [%] | Cmax [5] [µM] | pEC50 [9] | clearance [10] [mL/min/kg] | Activity [11] [%] | Activity [13] [%] | half-life [15] [h] | pEC50 [16] | Activity [18] [%] | fraction unbound [19] | pEC50 [20] | Vd [22] [L/kg] | further results |
| --- | --- | --- | --- | --- | --- | --- | --- | --- | --- | --- | --- | --- | --- |
| Cc1cc(-c2cc(OC(F)(F)F)ccc2Cl)cc(C)c1OCCCC(=O)O | 41 | 6.1 | 7.03 | 4.9 | 73 | – | 5.5 | < 5.00 | 61 | 0.002 | 7.80 | 0.95 | pIC50 [6]: 5.04; pIC50 (Cytochrome P450 2D6): < 4.30; pIC50 (Cytochrome P450 3A4): 5.48; pIC50 (Cytochrome P450 2C9): < 4.30; pIC50 [21]: 4.89 |
| O=C(O)CCCOc1ccc(-c2cc(Oc3ccccc3)ccc2F)cc1 | – | – | 7.00 | – | 80 | 91 | – | 5.45 | 71 | – | 7.54 | – | – |
| O=C(O)CCCOc1ccc(-c2noc3ccccc23)c(Cl)c1Cl | 97 | 4.64 | 6.32 | 24 | 29 | – | 3.3 | < 5.00 | 24 | 0.042 | 6.31 | 5.6 | Activity [24]: > 11%; Activity (CHO-K1): <10%; Activity [25]: Active |
| O=C(O)CCCOc1ccc(-c2cc(Oc3cccc(F)c3)ccc2Cl)cc1 | – | – | 6.70 | – | 70 | 67 | – | 5.47 | 80 | – | 7.47 | – | – |
| O=C(O)CCc1cc2cc(-c3cccc(OC(F)(F)F)c3)ccc2o1 | – | – | 6.26 | – | 59 | 43 | – | 5.86 | 48 | – | 6.49 | – | – |
| CCOc1ccc(F)c(-c2ccc(OCCCC(=O)O)cc2)c1 | – | – | 6.54 | – | 58 | 22 | – | 5.50 | 71 | – | 6.85 | – | – |
| Cc1cc(-c2cc(OC(F)(F)F)ccc2Cl)ccc1OCCCC(=O)O | – | – | 6.73 | – | 62 | 37 | – | 5.17 | 57 | – | 6.88 | – | – |

Stronger by pEC50 [9], values ahead:

| bioavailability [2] [%] | Cmax [5] [µM] | pEC50 [9] | clearance [10] [mL/min/kg] | Activity [11] [%] | Activity [13] [%] | half-life [15] [h] | pEC50 [16] | Activity [18] [%] | fraction unbound [19] | pEC50 [20] | Vd [22] [L/kg] | Compound | further results |
| --- | --- | --- | --- | --- | --- | --- | --- | --- | --- | --- | --- | --- | --- |
| – | – | 7.17 | – | 69 | 51 | – | 5.53 | 51 | – | 7.55 | – | Cc1cc(OC2CCC2)cc(-c2ccc3oc(CCC(=O)O)cc3c2)c1 | – |
| 100 | 8.17 | 7.20 | 20 | 75 | 38 | 1.6 | 5.74 | 73 | 0.002 | 7.37 | 3 | O=C(O)CCc1cc2cc(-c3cc(OC(F)(F)F)ccc3F)ccc2o1 | Activity (Mus musculus [1]): 68%; concentration [3]: 45.1 µM; concentration [4]: 24.8 µM; pIC50 [6]: < 4.52; pIC50 (Cytochrome P450 2D6): < 4.30; Activity (Mus musculus [7]): Active; Activity [8]: Active; pIC50 (Cytochrome P450 3A4): < 4.30; pIC50 (Cytochrome P450 2C9): 4.42; concentration [12]: 33.4 µM; concentration [14]: 23 µM; Activity (Mus musculus [17]): 40%; pIC50 [21]: 4.82 |
| 45 | 2.38 | 7.24 | 17 | 64 | 40 | 1.3 | 5.98 | 71 | 0.049 | 8.05 | 1.86 | O=C(O)CCCOc1ccc(-c2cc(OC(F)(F)F)ccc2Cl)cc1 | pIC50 [6]: 4.76; pIC50 (Cytochrome P450 2D6): < 4.30; pIC50 (Cytochrome P450 3A4): < 4.30; pIC50 (Cytochrome P450 2C9): 4.48; pIC50 [21]: < 4.52; pIC50 [23]: < 4.22 |
| – | – | 7.70 | – | 75 | 46 | – | 5.27 | 69 | – | 8.15 | – | O=C(O)CCCOc1c(F)cc(-c2cc(OC(F)(F)F)ccc2F)cc1F | – |
